In article PMC7822874, “Chemoprotective antimalarials identified through quantitative high-throughput screening of Plasmodium blood and liver stage parasites” (Scientific Reports, 2021):
Like-named read-outs stand apart in the source and are kept apart here.

Key:
[1] = tested on: P. berghei-ANKA-GFP-LucCON liver stage parasites in HepG2-A16-CD81EGFP cells; experiment: P. berghei liver stage Pb-Luc assay, Method 1 (UCSD, 1536-well); format: cell-based, Plasmodium berghei; settings: Plasmodium berghei, 48 h; as to Pb-Luc signal, 1 uM, repeat 1: reference of the scale not given here; as to Pb-Luc signal, 1 uM, repeat 2: reference of the scale not given here; as to Pb-Luc signal, 1 uM, repeat 3: reference of the scale not given here; as to Pb-Luc signal, 3 uM, repeat 1: reference of the scale not given here; as to Pb-Luc signal, 3 uM, repeat 2: reference of the scale not given here; as to Pb-Luc signal, 3 uM, repeat 3: reference of the scale not given here
in vitro = settings: human
[2] = tested on: Plasmodium falciparum Dd2 asexual blood stage parasites; experiment: microbe, parasite or virus in culture; set-up: species or system Plasmodium falciparum Dd2 in human erythrocytes; single determination (one 11-point concentration-response curve); settings: Plasmodium falciparum, DD2, Erythrocyte, 72 h
[3] = nominal 1 uM (10 mM stock), […] for 15 mM, 1.2 uM for 12 mM, 2 uM for 20 mM stock, average of 2 wells, 1536-well plate, repeat 1, read-out: Pb-Luc signal, 1 uM, repeat 1
[4] = nominal 1 uM (10 mM stock), […] for 15 mM, 1.2 uM for 12 mM, 2 uM for 20 mM stock, average of 2 wells, 1536-well plate, repeat 2, read-out: Pb-Luc signal, 1 uM, repeat 2
[5] = nominal 1 uM (10 mM stock), […] for 15 mM, 1.2 uM for 12 mM, 2 uM for 20 mM stock, average of 2 wells, 1536-well plate, repeat 3, read-out: Pb-Luc signal, 1 uM, repeat 3
[6] = nominal 3 uM (10 mM stock), 4.5 uM for 15 mM, 3.6 uM for 12 mM, 6 uM for 20 mM stock, average of 2 wells, 1536-well plate, repeat 1, read-out: Pb-Luc signal, 3 uM, repeat 1
[7] = nominal 3 uM (10 mM stock), 4.5 uM for 15 mM, 3.6 uM for 12 mM, 6 uM for 20 mM stock, average of 2 wells, 1536-well plate, repeat 2, read-out: Pb-Luc signal, 3 uM, repeat 2
[8] = nominal 3 uM (10 mM stock), 4.5 uM for 15 mM, 3.6 uM for 12 mM, 6 uM for 20 mM stock, average of 2 wells, 1536-well plate, repeat 3, read-out: Pb-Luc signal, 3 uM, repeat 3
[9] = nominal 3 uM (10 mM stock), 4.5 uM for 15 mM, 3.6 uM for 12 mM, 6 uM for 20 mM stock, average of 2 wells, repeat 2
[10] = HepG2-A16-CD81EGFP cells, uninfected
[11] = nominal 1 uM (10 mM stock), […] for 15 mM, 1.2 uM for 12 mM, 2 uM for 20 mM stock, average of 2 wells, repeat 2
[12] = read-out: Pb-Luc P. berghei liver stage signal, repeat 1
[13] = read-out: Pb-Luc P. berghei liver stage signal, repeat 2
[14] = read-out: Pb-Luc P. berghei liver stage signal, repeat 3

SMILES | activity at 1 µM [1, 3] [%] | activity at 1 µM [1, 4] [%] | activity at 1 µM [1, 5] [%] | activity at 3 µM [1, 6] [%] | activity at 3 µM [1, 7] [%] | activity at 3 µM [1, 8] [%] | HepG2 viability signal, 3 uM, repeat 2 (HepG2-A16-CD81EGFP cells; [9]) [%] | viability at 48 h, 1 µM (in vitro; [10]) [%] | viability at 48 h, 3 µM (in vitro; [10]) [%] | AC50 ([2]; read-out: AC50) [nM] | HepG2 viability signal, 1 uM, repeat 2 (HepG2-A16-CD81EGFP cells; [11]) [%] | further results
COc1ccc(-c2noc(-c3cccn3CC(=O)Nc3ccccc3F)n2)cc1F [NCGC00445496-01] | 109 | 140 | 144 | 172 | 189 | 163 | 99.66 | 98.5 | 101 | 4220 | – | –
COc1cccc([C@@H]2CCN(Cc3[nH]c4ccccc4c3C)C[C@H]2O)c1 [NCGC00443267-01] | 83.1 | 92.1 | 74.1 | 85.2 | 118 | 62.2 | – | – | – | 1500 | – | HepG2 viability signal, 1 uM, repeat 2 (HepG2-A16-CD81EGFP cells; human, 48 h, 1 µM): 93.46%; HepG2 viability signal, 3 uM, repeat 2 (HepG2-A16-CD81EGFP cells; human, 48 h, 3 µM): 93.99%; viability at 48 h, 1 µM (in vitro): 91.9%; viability at 48 h, 3 µM (in vitro): 96.2%
O=C(Nc1ccc2c(N3CCCC3)ncnc2c1)c1cccc(Br)c1 [NCGC00425495-01] | 70.5 | 86.1 | 85.5 | 34.5 | 39.4 | 21.9 | 98.07 | 101 | 97.5 | 668 | 101.29 | –
Cc1ccc(O)c([C@H](CCN(C(C)C)C(C)C)c2ccccc2)c1 [NCGC00159519-02] | – | – | – | – | – | – | – | – | – | – | – | activity at 1 µM [1, 12]: 106%; activity at 3 µM [1, 12]: 74.9%; activity at 1 µM [1, 13]: 80%; activity at 3 µM [1, 13]: 85.4%; activity at 1 µM [1, 14]: 106%; activity at 3 µM [1, 14]: 89%; HepG2 viability, fourth HepG2 column (HepG2-A16-CD81EGFP cells; human): 99.21%; HepG2 viability, second HepG2 column (HepG2-A16-CD81EGFP cells; human): 104.09%; HepG2 viability, third HepG2 column (HepG2-A16-CD81EGFP cells; human): 100.98%; viability (in vitro): 103%; AC50 [2]: 4220 nM
CC(C)C(=O)N1Cc2ccccc2CC2(CCCN(CC3CCCCC3)C2)C1 (stereo not shown) [NCGC00377456-01] | 94.7 | 96.1 | 116 | 81.5 | 98 | 85.1 | 104.36 | 100 | 105 | 53.1 | 102.51 | –
CC1CCCN(Cc2c(O)ccc3c(=O)c(-c4ccccc4Cl)c(C(F)(F)F)oc23)C1 (stereo not shown) [NCGC00100585-01] | 99.2 | 115 | 106 | 62.6 | 101 | 122 | 104.39 | 108 | 112 | 841 | 105.16 | –
CC(C)c1ccccc1Oc1c(C(F)(F)F)oc2c(CN3CCN(C)CC3)c(O)ccc2c1=O [NCGC00100597-01] | 104 | 108 | 80.4 | 67.9 | 95.1 | 69.5 | 99.40 | 101 | 102 | 668 | 96.39 | –
COc1ccc(-c2cc(=O)oc3c4c(ccc23)OCN(Cc2ccccc2)C4)cc1 [NCGC00116344-01] | 71.5 | 126 | 103 | 62.6 | 101 | 76.9 | 97.26 | 98.2 | 101 | 2990 | 95.59 | –
c1ccc(Nc2cc3c(cn2)CN(Cc2ccc4[nH]ccc4c2)CCN3)cc1 [NCGC00411105-01] | 55.9 | 72.5 | 17.8 | 23.8 | 30.2 | 10.7 | 55.41 | 40.4 | 43.5 | 1370 | 44.56 | –
COc1cc2c(cc1OCc1ccccc1)N(C(=O)c1cc3ccccc3[nH]1)CC21CCN(C)CC1 [NCGC00419851-01] | 59.5 | 89.6 | 74.1 | 16.8 | 54.6 | 95.7 | – | – | – | 944 | – | HepG2 viability signal, 1 uM, repeat 2 (HepG2-A16-CD81EGFP cells; human, 48 h, 1 µM): 101.97%; HepG2 viability signal, 3 uM, repeat 2 (HepG2-A16-CD81EGFP cells; human, 48 h, 3 µM): 102.28%; viability at 48 h, 1 µM (in vitro): 99%; viability at 48 h, 3 µM (in vitro): 98.9%
CCN(Cc1ccccc1)C(=O)CCC[C@@H]1[C@H]2CCCN3CCC[C@@H](CN1C(=O)c1ccccc1)[C@@H]23 [NCGC00429496-01] | 107 | 115 | 85.5 | 89.3 | 121 | 99.6 | 100.31 | 93.4 | 93.8 | 13300 | 99.16 | –
COc1ccccc1NC(=O)N1CCOc2ccc(CN3CCc4ccccc4C3)cc2C1 [NCGC00471234-01] | 118 | 82 | 108 | 110 | 87.1 | 47 | 96.50 | 98 | 96.8 | 2370 | 96.28 | –
COc1ccc2[nH]c(C[C@@H]3C[C@@H](C(C)C)[C@H](CNCc4ccccc4OC)C=C3C)nc2c1 [NCGC00392082-01] | 67 | 80.5 | 77.5 | 48.5 | 52 | 40.1 | 97.57 | 99 | 97.1 | 9440 | 98.07 | –
